Assay results published in patent US10487117B2, “Antimicrobial peptide for nosocomial infections” (priority 2015, dated 2019).
Residues, ends and D or L forms follow the SMILES beside them.

Tests used:
[1] = tested on: established P. aeruginosa biofilms; test: SYTOX Green membrane permeabilization assay on biofilm; assay type: cell-based, Pseudomonas aeruginosa; settings: maximum percentage at final incubation time, 10% Triton X-100 reference
Protocol: Membrane permeabilization was followed using the method SYTOX Green Fluorescence membrane permeabilization assay. In the planktonic assay, bacterial cells were grown at 37° C. to an OD600=0.2, centrifuged at 5000×g for 5 min, and resuspended in 1×PBS to an OD600=0.2. An aliquot of 200 μl was then transferred to a microtiter plate. For biofilm assay, 24 h formed P. aeruginosa biofilm in a 96-well microtiter plate were washed three times with sterile PBS. SYTOX Green was added to a final concentration of 1 μM and incubated 15 min in darkness. Changes in the fluorescence were continuously recorded after addition of a serially diluted protein/peptides from 50 to 0.1 μM in a Victor3 plate reader. The peptide concentration required to achieve half of total and total membrane permeabilization achieved after 40 min was estimated from nonlinear regression analysis as previously described (Pulido D. et al. Antimicrob Agents Chemother 2013). A maximum reference value was taken for Triton X-100 at 10%.
Thereupon, the antimicrobial mechanism of action of the RNase 3 derived peptide on P. aeruginosa biofilms was further characterized with the depolarization and permeabilization assays. As applied for the P. aeruginosa planktonic culture, the fluorescent DisC3(5) assay was also used here in order to monitor the depolarization activity of the studied protein and peptides against established biofilms. Therefore, we have measured the half depolarization action (ED50), and the total depolarization activity expressed as a percentage (Table 7). […] Similar results were obtained for the Sytox Green permeabilization assay, where the total permeabilization effect was hindered for all the AMPs tested, and between two to ten times higher concentrations were required to achieve half of the biofilm cell permeabilizing effect in comparison to the planktonic cells.

[2] = Biofilm cell mortality, BacTiter-Glo luminescent assay; assay type: cell-based, Pseudomonas aeruginosa; settings: 24 h formed biofilm; 4 h at 37° C.; 10% Triton X-100 as maximum reference; N.D. = not detected at 50 μM; read-out: Biofilm cell mortality (%max)
Protocol: Bacterial viability was assayed using the BacTiter-Glo™ microbial cell viability kit. Briefly, protein/peptides were dissolved in 10 mM sodium phosphate, 0.1M buffer, pH 7.5, serially diluted from 50 to 0.1 μM and tested in a 96-well microtiter plate containing P. aeruginosa planktonic (OD600˜0.2) or 24 h formed biofilm for 4 h at 37° C. Fifty microliters of BacTiter-Glo™ reagent was added to each well according to the manufacturer's instructions and incubated at room temperature for 15 min. Luminescence was read on a Victor3 plate reader with a 3-s integration time. Fifty percent (ED50) and total inhibitory concentrations were calculated by fitting the data to a dose-response curve.
As a first approach, the biofilm cell viability was monitored using the BacTiter-Glo™ luminescent assay. Therefore, the antimicrobial action of the studied AMPs was determined on already established P. aeruginosa biolfilms (FIG. 1 and Table 6). […] However, for all the active peptides, the concentrations needed to produce an equivalent effect in biofilms were between 2 to 10 times higher than in planktonic cultures. […] At the same time, we applied the crystal violet technique to assess the peptide ability to disperse pre-established P. aeruginosa biofilms.
(§1) Biofilm formation assay was modified from the previously described protocol (Huedo P. et al. 2014). Briefly, overnight cultures of P. aeruginosa were centrifuged at 5000×g for 5 min, washed and adjusted to an OD600=0.1 in tryptic soy medium (TSB). Two hundred microliters of the bacterial suspension were dispensed in each well of a polystyrene 96-well microtiter plate (Greiner Bio-one, France). The plate was incubated at 37° C. on an orbital shaker (30 rpm). The media was exchanged with fresh pre-warmed TSB after 4 h, in order to remove the non-attached bacteria. After 24 h incubation, the formation of biofilm was then evaluated using the crystal violet staining technique (Stepanovic S. et al. 2000). Briefly, the plates were washed three times with PBS, fixed at 60° C. for 1 h, and stained for 15 min with 200 μl of 0.1% crystal violet. After the dye was discarded, plates were rinsed in PBS and allowed to dry for 30 min at 37° C. Crystal violet was dissolved in 250 μl of 95% ethanol for 15 min, and the OD570 of the extracted dye was measured using a Victor3 plate reader (Perkin-Elmer, Waltham, Mass.).

[3] = tested on: LPS (lipopolysaccharides) from P. aeruginosa; test: LPS binding assay, BODIPY TR cadaverine (BC) displacement; set-up: species or system Pseudomonas aeruginosa; settings: 100% = total displacement of the dye; mean ± SEM
Protocol: Following, LPS binding affinity was monitored by a fluorometric assay which measures the competitive displacement of a cadaverine fluorescent probe (BC) by the protein and peptides. The half LPS binding affinity (ED50), defined as the AMP concentration needed to achieve half of BC displacement, and the total LPS binding affinity, expressed as a percentage, were determined (Table 4). Interaction with negatively charged surfaces of bacteria is the first step for cationic peptides to reach the bacterial membranes and exert their antimicrobial action.
LPS binding was assessed using the fluorescent probe BODIPY TR cadaverine (BC) as previously described (Pulido D. et al. Febs J 2013). BC binds strongly to native LPS, specifically recognizing the lipid A portion. When a protein that interacts with LPS is added, BC is displaced from the complex and its fluorescence is increased, decreasing its occupancy factor. LPS-binding assays were carried out in a 10 mM Hepes buffer at pH 7.5. The displacement assay was performed using a 96 well microtiter plate containing stirred mixture of either LPS (10 μg/mL) and BC (10 μM). Protein/peptides were serially diluted from 10 to 0.1 μM. Fluorescence measurements were performed on a Victor3 plate reader (Perkin Elmer, Waltham, Mass.). The protein/peptide concentration required to achieve half of total and total BC displacement was estimated from nonlinear regression analysis as previously described (Wood S. J. et al. 2004)

[4] = tested on: pre-established P. aeruginosa biofilm; test: Biofilm eradication assay, crystal violet staining; assay type: cell-based, Pseudomonas aeruginosa; settings: 24 h formed biofilm; 4 h at 37° C.; 10% Triton X-100 as maximum reference
Protocol: Following, the biofilm eradication activity was determined (FIG. 1 and Table 6). […] Moreover, the biofilm eradication activity of all the tested reference peptides was well above the maximum concentration tested (50 μM), except for RN3(5-17P22-36) which was able to eradicate the biofilm close to 50 μM.
as §1
Biofilms were grown as above. Twenty-four hour formed P. aeruginosa biofilm was washed three times with sterile PBS, and rinsed with 10 mM sodium phosphate buffer pH 7.5. Each well was treated with increasing protein/peptide concentrations (from 0.01 to 50 μM) and incubated at 37° C. for 4 h. The biofilm eradication was then evaluated using the crystal violet staining technique (Stepanovic S. et al. 2000). The ability of the antimicrobial peptides to disperse and reduce the biofilm mass of preformed biofilms was calculated. The peptide concentration required to achieve total preformed biofilm eradication after 4 h incubation time was estimated. A maximum reference value was taken for Triton X-100 at 10%. The minimum biofilm eradication concentration (MBEC), defined as the protein/peptide concentration where the 99.9% of the biofilm mass is eradicated was estimated.

SMILES | Permeabilization Mean % ± SEM [1] | mortality [2] | LPS binding %max (percentage of maximum displacement) [3] | Biofilm eradication (%max) [4]
CC[C@H](C)[C@H](NC(=O)CNC(=O)[C@@H](NC(=O)[C@H](CCCCN)NC(=O)[C@H](CCCCN)NC(=O)[C@H](Cc1ccccc1)NC(=O)[C@H](CC(C)C)NC(=O)[C@H](CCCCN)NC(=O)[C@H](Cc1c[nH]c2ccccc12)NC(=O)[C@@H](N)CCCCN)[C@@H](C)CC)C(=O)NCC(=O)N[C@@H](C)C(=O)N[C@H](C(=O)N[C@@H](CC(C)C)C(=O)N[C@@H](CCCCN)C(=O)N[C@H](C(=O)N[C@@H](CC(C)C)C(=O)N[C@H](C(=O)N[C@H](C(=O)NCC(=O)N[C@@H](CC(C)C)C(=O)N1CCC[C@H]1C(=O)N[C@@H](C)C(=O)N[C@@H](CC(C)C)C(=O)N[C@H](C(=O)N[C@@H](CO)C(N)=O)[C@@H](C)CC)[C@@H](C)O)[C@@H](C)O)C(C)C)C(C)C [CA-M] | 23.01 ± 1.13% | 54.3 ± 5.51% | 69.16 ± 6.23% | 53.03 ± 1.46%
CC[C@H](C)[C@H](NC(=O)[C@H](CCC(N)=O)NC(=O)CN)C(=O)N[C@H](C(=O)N[C@@H](CC(N)=O)C(=O)N[C@@H](CC(C)C)C(=O)N[C@@H](CCCCN)C(=O)N[C@@H](C)C(=O)N[C@@H](CO)C(=O)N[C@@H](CC(C)C)C(=O)N[C@@H](CC(=O)O)C(=O)N[C@@H](CC(C)C)C(=O)N[C@@H](CC(C)C)C(N)=O)[C@@H](C)CC [GL-13, GQIINLKASLDLL-NH2] (H-GQIINLKASLDLL-NH2) | – | – | 44.37 ± 3.84% | 33.28 ± 1.07%
CC[C@H](C)[C@H](NC(=O)[C@H](CCCCN)NC(=O)[C@H](CCC(=O)O)NC(=O)[C@H](CCCCN)NC(=O)[C@H](CO)NC(=O)[C@H](CCCCN)NC(=O)[C@H](CCCNC(=N)N)NC(=O)[C@H](Cc1ccccc1)NC(=O)[C@H](Cc1ccccc1)NC(=O)[C@H](CC(=O)O)NC(=O)CNC(=O)[C@H](CC(C)C)NC(=O)[C@@H](N)CC(C)C)C(=O)NCC(=O)N[C@@H](CCCCN)C(=O)N[C@@H](CCC(=O)O)C(=O)N[C@@H](Cc1ccccc1)C(=O)N[C@@H](CCCCN)C(=O)N[C@@H](CCCNC(=N)N)C(=O)N[C@H](C(=O)N[C@H](C(=O)N[C@@H](CCC(N)=O)C(=O)N[C@@H](CCCNC(=N)N)C(=O)N[C@H](C(=O)N[C@@H](CCCCN)C(=O)N[C@@H](CC(=O)O)C(=O)N[C@@H](Cc1ccccc1)C(=O)N[C@@H](CC(C)C)C(=O)N[C@@H](CCCNC(=N)N)C(=O)N[C@@H](CC(N)=O)C(=O)N[C@@H](CC(C)C)C(=O)N[C@H](C(=O)N1CCC[C@H]1C(=O)N[C@@H](CCCNC(=N)N)C(=O)N[C@H](C(=O)N[C@@H](CCC(=O)O)C(=O)N[C@@H](CO)C(N)=O)[C@@H](C)O)C(C)C)[C@@H](C)CC)C(C)C)[C@@H](C)CC [LL-37] | 24.21 ± 3.71% | 64 ± 3.33% | – | 35.54 ± 1.13%
